{
  "source": "patent US9616006B2",
  "about": "“Methods and compositions for treating dermatological diseases and conditions” (priority 2007, dated 2017)",
  "key": {"[1]": {"system": "IL-8", "assay": "UV-induced IL-8 production in fibroblasts (ELISA)", "assay_type": "cell-based, human", "settings": "Homo sapiens, Fibroblast, read-out: Percent Inhibition of IL-8", "method": "(§1) In one study, various concentrations of DHE were added to culture medium and these media were placed on human fibroblast cell cultures (results shown in FIG. 1). Cells were either not induced or induced with UVB radiation to stimulate cytokine/PGE-2 production. At 24 hours after treatment, the cell culture medium was removed and assayed by ELISA methods for the expression of PGE-2, various cytokines and chemokines.\nDHE and IE both have inhibitory effects on the production of the inflammatory mediators in fibroblasts."}, "[2]": {"system": "TNF-α", "assay": "TPA-induced TNF-α production in keratinocytes (ELISA)", "assay_type": "cell-based, human", "settings": "Homo sapiens, Keratinocyte; Keratinocytes (TPA); 100 uM; read-out: Percent Inhibition of TNF-α", "method": "as §1\nWhen similar experiments were carried out with human keratinocytes, DHE was again found to markedly suppress the UVR induction of PGE-2, with a concentration of 50 uM inhibiting the production of PGE-2 by over 60% (results shown in FIG. 2). […] Further, since PGE-2 is known to be a principal factor in the development of actinic keratosis and skin cancer, DHE can also be used in treating these conditions.\nInflammatory mediators produced in the skin contribute to the development and propagation of such diseases as rosacea, psoriasis and atopic dermatitis. While many inflammatory mediators are involved in these diseases, TNF-α is known to be a major cytokine involved in psoriasis. For atopic dermatitis, TNF-α, IL-8, and MCP-1 are important mediators of inflammation in these diseases. DHE is effective in suppressing the TPA-induced (TPA is tetradecanolyl phorbol ester) production of TNF-α by approximately 50% at a 100 micromolar concentration (results shown in FIG. 3).\nDHE and IE both have inhibitory effects on production of the inflammatory mediators in keratinocytes."}},
  "data": [
    {"smiles": "CC=Cc1ccc(O)c(OC)c1", "note": "[IE, isoeugenol]", "values": [
      {"measurement": "inhibition at 100 µM", "setting": "[1]", "result": 2, "unit": "%"},
      {"measurement": "inhibition at 100 µM", "setting": "[2]", "result": 71, "unit": "%"}
    ]}
  ]
}
